The test has as its target T1, E1 and His-E2 Ubch10 (Homo sapiens, UniProt P22314).
T1 construct: host or cells: E. coli (His-Ubch10); Sf9 insect cells (E1)
T1 sequence (P22314 1-1058): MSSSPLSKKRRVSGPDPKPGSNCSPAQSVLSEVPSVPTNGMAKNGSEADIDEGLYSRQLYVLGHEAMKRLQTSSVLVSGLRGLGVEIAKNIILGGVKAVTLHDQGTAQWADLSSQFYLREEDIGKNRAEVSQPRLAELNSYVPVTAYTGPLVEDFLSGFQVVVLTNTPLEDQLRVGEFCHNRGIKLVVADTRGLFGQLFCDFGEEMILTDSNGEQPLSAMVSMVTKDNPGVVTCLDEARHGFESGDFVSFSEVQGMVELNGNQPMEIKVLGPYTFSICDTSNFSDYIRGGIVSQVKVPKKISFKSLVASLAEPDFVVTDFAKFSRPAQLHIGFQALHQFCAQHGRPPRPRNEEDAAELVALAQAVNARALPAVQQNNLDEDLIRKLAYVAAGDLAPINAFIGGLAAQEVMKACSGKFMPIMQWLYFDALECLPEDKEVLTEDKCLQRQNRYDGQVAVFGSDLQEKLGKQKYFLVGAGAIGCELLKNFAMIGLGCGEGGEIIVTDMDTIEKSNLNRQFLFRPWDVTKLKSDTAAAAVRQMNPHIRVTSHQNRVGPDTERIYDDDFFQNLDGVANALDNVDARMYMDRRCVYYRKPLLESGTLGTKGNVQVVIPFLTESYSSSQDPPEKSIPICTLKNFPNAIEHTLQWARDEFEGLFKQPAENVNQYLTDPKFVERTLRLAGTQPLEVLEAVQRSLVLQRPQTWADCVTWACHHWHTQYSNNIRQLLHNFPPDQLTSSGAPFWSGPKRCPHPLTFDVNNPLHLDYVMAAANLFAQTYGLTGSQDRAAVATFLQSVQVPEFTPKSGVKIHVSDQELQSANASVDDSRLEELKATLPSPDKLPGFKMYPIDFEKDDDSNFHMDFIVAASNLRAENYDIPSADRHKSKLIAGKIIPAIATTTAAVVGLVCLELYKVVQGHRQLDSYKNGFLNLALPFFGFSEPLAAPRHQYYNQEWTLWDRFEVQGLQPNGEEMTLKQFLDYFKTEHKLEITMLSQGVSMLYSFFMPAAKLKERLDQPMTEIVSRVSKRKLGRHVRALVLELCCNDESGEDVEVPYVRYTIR
As to the kind of experiment: E1 to E2 transfer assay, His-E2 Ubch10, 1.0 μM ATP (low ATP). Particulars: Table 5, ATP inhibition properties; inhibition measured using IC50 values. The test is classed as biochemical. The source says:
Biological assays for determining the transfer of ubiquitin from the E1 activating agent to the E2 conjugating agent are described in U.S. patent application Ser. Nos. 09/542,497 and 09/826,312 as well as in the PCT Application WO 01/75145, all of which are incorporated by reference in their entirety. The following assay example illustrates one way by which the ubiquitin ligase inhibitory activity of the compounds of the invention can be assayed. This assay example is not meant to limit in any way the use of the compounds of the invention as ubiquitin ligase inhibitors.
The attachment of a ubiquitin moiety to the E2 conjugating agent was assayed using Flag-ubiquitin that was purified from E. coli, E2 Ubch10 that was purified as a His-Ubch10 from E. coli, and E1 that was purified from Sf9 insect cells (Affiniti Research Products, Exeter, U.K.). The wells of a Nickel-substrate 96-well plate (Pierce Chemical) were blocked with 100 μl of 1% casein/phosphate buffered saline (PBS) for 1 hour at room temperature. The blocked Nickel-substrate plate was then washed three times with 200 μl of PBST (0.1% Tween-20 in PBS). Subsequently, Flag-ubiquitin reaction solution was added to each well so that the final concentration was 62.5 mM Tris pH 7.5, […], 0.75 mM DTT, 1.0 μM ATP (low ATP), and 100 ng Flag-ubiquitin. The final reaction solution volume was fixed to 80 μl with Millipore-filtered water. To this was added the following: a ubiquitin agent inhibitor in 10 μl of DMSO, 10 μl of E1 and His-E2 Ubch10 in 20 mM Tris buffer, pH 7.5, and 5% glycerol so that there was 10 ng/well of E1 and 20 ng/well of His-E2 Ubch10. The reaction was then allowed to proceed at room temperature for 1 hour.
After 1 hour, the wells were washed three times with 200 μl of PBST and the amount of E2-ubiquitin complex was measured. For measuring the amount of the E2-ubiquitin complex, 100 μl of Mouse anti-flag diluted 1:10,000 (Sigma Aldrich Fluka Chemicals, St. Louis, Mo.) and anti-mouse HRP diluted 1:15,000 (Jackson Immunoresearch labs, West Grove, Pa.) in PBST were added to each well and allowed to incubate at room temperature for another hour. The wells were then washed three times with 200 μl of PBST and 100 μl of luminol substrate (⅕ dilution) was added. The luminescence of each well was then measured using a […] to calculate the amount of E2-ubiquitin complex. This procedure was repeated using His-E2 Ubch5C instead of His-E2 Ubch10.
The table below illustrates the inhibitory properties of the pharmaceutical compostions of the invention comprising the compounds listed in the table using the assays described above. Inhibition was measured using IC50 values.

For the compound `Cc1ccc(C(=O)Nc2nc3ccc([N+](=O)[O-])cc3s2)cc1C` [Compound 79, 3,4-dimethyl-N-(6-nitrobenzo[d]thiazol-2-yl)benzamide], the UBC10 entry is “++ (++ indicates inhibition at 50 μM or or less)”.
For `Cc1ccc2nc(NC(=O)c3ccc(C)c(C)c3)sc2c1` [Compound 80, 3,4-dimethyl-N-(6-methylbenzo[d]thiazol-2-yl)benzamide], the UBC10 result is “−− (−− indicates marginal or no inhibition detected with this assay)”.
Regarding `CCCc1ccc(C(=O)Nc2nc3ccc(OC)cc3s2)cc1` [Compound 81, N-(6-methoxybenzo[d]thiazol-2-yl)-4-propylbenzamide], the UBC10 entry is “++ (++ indicates inhibition at 50 μM or or less)”.
Consider `CCCCc1ccc(C(=O)Nc2nc3ccc(OC)cc3s2)cc1` [Compound 82, 4-butyl-N-(6-methoxybenzo[d]thiazol-2-yl)benzamide], for which the UBC10 entry is “++ (++ indicates inhibition at 50 μM or or less)”.
As for `CCCCCCc1ccc(C(=O)Nc2nc3ccc(OC)cc3s2)cc1` [Compound 83, 4-hexyl-N-(6-methoxybenzo[d]thiazol-2-yl)benzamide], the entry is “−− (−− indicates marginal or no inhibition detected with this assay)”; as for `Cc1ccc(C(=O)Nc2nc3ccccc3s2)cc1` [Compound 84, N-(benzo[d]thiazol-2-yl)-4-methylbenzamide], “++ (++ indicates inhibition at 50 μM or or less)”.
In the case of `CCc1ccc(C(=O)Nc2nc3ccccc3s2)cc1` [Compound 85, N-(benzo[d]thiazol-2-yl)-4-ethylbenzamide], the UBC10 result is “++ (++ indicates inhibition at 50 μM or or less)”.
Turning to `Nc1ccc(C(=O)Nc2nc3ccccc3s2)cc1` [Compound 86, 4-amino-N-(benzo[d]thiazol-2-yl)benzamide], the UBC10 entry is on record as “−− (−− indicates marginal or no inhibition detected with this assay)”.
In the case of `COc1ccc2nc(NC(=O)c3ccco3)sc2c1` [Compound 87, N-(6-methoxybenzo[d]thiazol-2-yl)furan-2-carboxamide] it was “++ (++ indicates inhibition at 50 μM or or less)”; in that of `O=C(Nc1nc2ccccc2s1)c1ccco1` [Compound 88, N-(benzo[d]thiazol-2-yl)furan-2-carboxamide], “−− (−− indicates marginal or no inhibition detected with this assay)”.
As to `O=C(Nc1nc2ccccc2s1)c1cccs1` [Compound 89, N-(benzo[d]thiazol-2-yl)thiophene-2-carboxamide], the UBC10 entry is reported as “−− (−− indicates marginal or no inhibition detected with this assay)”.
As for `CCOc1ccc2nc(NC(=O)c3ccc4c(c3)OCCO4)sc2c1` [Compound 90, N-(6-ethoxybenzo[d]thiazol-2-yl)-2,3-dihydrobenzo[b][1,4]dioxine-6-carboxamide], the entry is “++ (++ indicates inhibition at 50 μM or or less)”; as for `CCOc1ccc2nc(NC(=O)c3ccc(CC)cc3)sc2c1` [Compound 91, N-(6-ethoxybenzo[d]thiazol-2-yl)-4-ethylbenzamide], “−− (−− indicates marginal or no inhibition detected with this assay)”.
As for `CCOc1ccc2nc(NC(=O)c3ccc(C)cc3)sc2c1` [Compound 92, N-(6-ethoxybenzo[d]thiazol-2-yl)-4-methylbenzamide], the entry is “−− (−− indicates marginal or no inhibition detected with this assay)”.
For `CCOc1ccc2nc(NC(=O)c3ccc(C)c(C)c3)sc2c1` [Compound 93, N-(6-ethoxybenzo[d]thiazol-2-yl)-3,4-dimethylbenzamide], the UBC10 result is “−− (−− indicates marginal or no inhibition detected with this assay)”.
As to `CCOc1ccc2nc(NC(=O)c3ccc(NC(C)=O)cc3)sc2c1` [Compound 94, 4-acetamido-N-(6-ethoxybenzo[d]thiazol-2-yl)benzamide], the UBC10 result is recorded as “−− (−− indicates marginal or no inhibition detected with this assay)”.
Take `COc1ccc2nc(NC(=O)c3ccc(Cl)c(Cl)c3)sc2c1` [Compound 95, 3,4-dichloro-N-(6-methoxybenzo[d]thiazol-2-yl)benzamide]: the UBC10 result is recorded as “++ (++ indicates inhibition at 50 μM or or less)”.
As for `CCOc1ccc2nc(NC(=O)c3ccc(Cl)c(Cl)c3)sc2c1` [Compound 96, 3,4-dichloro-N-(6-ethoxybenzo[d]thiazol-2-yl)benzamide], the UBC10 result is “++ (++ indicates inhibition at 50 μM or or less)”.
In the case of `COc1ccc2nc(NC(=O)NC34CC5CC(CC(C5)C3)C4)sc2c1` [Compound 97, N-1-adamantyl-N′-(6-methoxy-1,3-benzothiazol-2-yl)urea] it was “++ (++ indicates inhibition at 50 μM or or less)”.
`COc1ccc2nc(NC(=O)Nc3ccccc3)sc2c1` [Compound 98, 1-(6-methoxybenzo[d]thiazol-2-yl)-3-phenylurea]: the UBC10 entry is recorded as “−− (−− indicates marginal or no inhibition detected with this assay)”.
In the case of `COc1ccc2nc(NC(=O)Nc3ccc(Cl)cc3)sc2c1` [Compound 99, 1-(4-chlorophenyl)-3-(6-methoxybenzo[d]thiazol-2-yl)urea] it was “−− (−− indicates marginal or no inhibition detected with this assay)”; in that of `COc1ccc2nc(NC(=O)Nc3cccc(F)c3)sc2c1` [Compound 100, 1-(3-fluorophenyl)-3-(6-methoxybenzo[d]thiazol-2-yl)urea], “++ (++ indicates inhibition at 50 μM or or less)”; in that of `COc1ccc2nc(NC(=O)c3ccc(C)cc3C)sc2c1` [Compound 101, N-(6-methoxybenzo[d]thiazol-2-yl)-2,4-dimethyibenzamide], “++ (++ indicates inhibition at 50 μM or or less)”.
On to `COc1ccc2nc(NC(=O)c3sccc3C)sc2c1` [Compound 103, N-(6-methoxybenzo[d]thiazol-2-yl)-3-methylthiophene-2-carboxamide], for which the UBC10 entry was “++ (++ indicates inhibition at 50 μM or or less)”.
Consider `COc1ccc2nc(NC(=O)c3sccc3Cl)sc2c1` [Compound 104, 3-chloro-N-(6-methoxybenzo[d]thiazol-2-yl)thiophene-2-carboxamide], for which the UBC10 entry is on record as “−− (−− indicates marginal or no inhibition detected with this assay)”.
Take `COc1ccc(OC)c(NC(=O)Nc2nc3ccc(OC)cc3s2)c1` [Compound 120, 1-(2,5-dimethoxyphenyl)-3-(6-methoxybenzo[d]thiazol-2-yl)urea]: the UBC10 entry is “++ (++ indicates inhibition at 50 μM or or less)”.
On to `COc1ccc2nc(NC(=O)Nc3cccc(Cl)c3Cl)sc2c1` [Compound 124, 1-(2,3-dichlorophenyl)-3-(6-methoxybenzo[d]thiazol-2-yl)urea], for which the UBC10 result was “−− (−− indicates marginal or no inhibition detected with this assay)”.
In the case of `CCOC(=O)c1ccc(NC(=O)Nc2nc3ccc(OC)cc3s2)cc1` [Compound 126] it was “−− (−− indicates marginal or no inhibition detected with this assay)”.

For the origin of these results see patent US20080039629A1, “Benzothniazole compositions and their use as ubiquition ligation inhibitors” (RIGEL PHARMACEUTICALS, INC., priority 2003, published 2008).
